# According to patent US20100197650A1, “COMPOSITIONS AND METHODS OF TREATMENT COMPRISING CEFTAROLINE” (FOREST LABORATORIES HOLDINGS LTD., priority 2008, published 2010):
# Read-outs that look alike come from different tables or passages of the source.
# How the values were obtained:
# [1] = system: Acinetobacter baumannii; assay: MIC, broth microdilution (Example 1); format: cell-based
# In short: (§1)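 CLSI broth microdilution with seven 2-fold dilutions per agent made in DMSO, the drug making up 5% of final well volume. H. influenzae was tested in Haemophilus Test Medium, S. pneumoniae in Mueller Hinton II broth with 2% lysed horse blood, and the others in Mueller Hinton II broth. Incubation was 35 °C for about 20 h, with visual reading.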
# [2] = system: Enterococcus faecalis; assay: MIC, broth microdilution (Example 1); format: cell-based
# In short: as §1
# [3] = system: Escherichia coli; assay: MIC, broth microdilution (Example 1); format: cell-based; settings: Escherichia coli, read-out: MIC
# In short: as §1
# [4] = system: Haemophilus influenzae; assay: MIC, broth microdilution (Example 1); format: cell-based
# In short: (§2)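 Following the CLSI M7-A7 microdilution standard, each agent alone was tested across seven 2-fold steps. The drugs were in DMSO, and the medium was HTM, MH II broth, or MH II broth with 2% lysed horse blood depending on species. MIC was read visually after ~20 h at 35 °C.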
# [5] = system: Pseudomonas aeruginosa; assay: MIC, broth microdilution (Example 1); format: cell-based
# In short: as §2
# [6] = system: Staphylococcus aureus; assay: MIC, broth microdilution (Example 1); format: cell-based
# In short: as §1
# [7] = system: ESBL-producing E. coli; assay: Susceptibility testing MIC/MBC, broth microdilution (Example 2); format: cell-based, Escherichia coli; settings: for MBC / MIC: Escherichia coli
# [8] = system: AmpC-derepressed Enterobacter cloacae; assay: microbe, parasite or virus in culture; format: cell-based; settings: for MBC / MIC: Enterobacter cloacae
# [9] = system: HA-MRSA; assay: Time-kill curves at ¼ and ½ MIC (Example 3); format: cell-based, Staphylococcus aureus; settings: drug alone at ½ MIC, the 2 vancomycin-susceptible MRSA, followed by regrowth
# Protocol: Four strains, including 1 hVISA and 1 VISA, characterized by population analysis profile and Macro Etest were selected for time-kill analysis.
# Trypose soy agar (TSA; Difco, Detroit, Mich.) was used for colony counting.
# Four randomly selected HA-MRSA isolates were evaluated in time-kill experiments, using a starting inoculum at ˜10^6 CFU/mL and antimicrobials at ¼ and ½ MIC. Regimens included ceftaroline, vancomycin and tobramycin alone or combination of tobramycin with ceftaroline or vancomycin. […] Additivity, antagonism and indifference were defined as <2 but >1 log10 kill, >1 log10 growth and ±1 log kill, respectively.
# Differences between regimens were analyzed by T-test or ANOVA with Tukey's post hoc test. […] A P value <0.05 was considered significant.
# [10] = E. cloacae (10) clinical isolates
smiles,measurement,setting,value
CCO/N=C(\C(=O)N[C@@H]1C(=O)N2C(C(=O)[O-])=C(Sc3nc(-c4cc[n+](C)cc4)cs3)CS[C@H]12)c1nsc(N)n1 [Ceftaroline],MIC,[1]; A. baumannii 2602,2 µg/mL
same,MIC,"[1]; Acinetobacter baumannii, A. baumannii 2601, read-out: MIC",2 µg/mL
same,MIC,[2]; E. faecalis 0796 (VSE),4 µg/mL
same,MIC,"[2]; Enterococcus faecalis, E. faecalis 0795 (VSE), read-out: MIC",8 µg/mL
same,MIC,"[2]; Enterococcus faecalis, E. faecalis 0796 (VSE), read-out: MIC",2 µg/mL
same,MIC,"[2]; Enterococcus faecalis, VRE, E. faecalis 0847 (VRE), read-out: MIC",2 µg/mL
same,MIC,"[2]; Enterococcus faecalis, VRE, E. faecalis 0849 (VRE), read-out: MIC",4 µg/mL
same,MIC,[3]; E. coli 1587,0.12 µg/mL
same,MIC,[3]; E. coli 2273 (ESBL),2 µg/mL
same,MIC,[4]; H. influenzae 1224,0.12 µg/mL
same,MIC,[4]; H. influenzae 2797 (BLNAR),0.12 µg/mL
same,MIC,"[4]; Haemophilus influenzae, H. influenzae 1224, read-out: MIC",0.06 µg/mL
same,MIC,"[4]; Haemophilus influenzae, H. influenzae 2797 (BLNAR), read-out: MIC",0.06 µg/mL
same,MIC,"[4]; Haemophilus influenzae, H. influenzae 2798 (BLNAR), read-out: MIC",0.03 µg/mL
same,MIC,"[4]; Haemophilus influenzae, H. influenzae 2799 (BLNAR), read-out: MIC",0.03 µg/mL
same,MIC,[5]; P. aeruginosa 2555,32 µg/mL
same,MIC,[5]; P. aeruginosa 2559,16 µg/mL
same,MIC,[6]; S. aureus 0765 (MRSA),2 µg/mL
same,MIC,"[6]; Staphylococcus aureus, MRSA, S. aureus 0765 (MRSA), read-out: MIC",1 µg/mL
same,MIC,"[6]; Staphylococcus aureus, MRSA, S. aureus 2053 (MRSA), read-out: MIC",2 µg/mL
same,MIC,"[6]; Staphylococcus aureus, MRSA, S. aureus 2202 (CA-MRSA), read-out: MIC",1 µg/mL
same,MIC,"[6]; Staphylococcus aureus, MRSA, S. aureus 2296 (CA-MRSA), read-out: MIC",1 µg/mL
same,MIC,"[6]; Staphylococcus aureus, MSSA, S. aureus 0753 (MSSA), read-out: MIC",0.5 µg/mL
same,MIC,"[6]; Staphylococcus aureus, MSSA, S. aureus 2063 (MSSA), read-out: MIC",0.5 µg/mL
same,MBC range,[7]; E. coli (10) clinical isolates,4 to 1024 µg/mL
same,MIC range,[7]; E. coli (10) clinical isolates,2 to 512 µg/mL
same,MBC,"[7]; E. coli isolate no. 5401, read-out: MBC",8 µg/mL
same,MIC,"[7]; E. coli isolate no. 5401, read-out: MIC",4 µg/mL
same,MBC,[7]; E. coli isolate no. 5411,128 µg/mL
same,MIC,[7]; E. coli isolate no. 5411,64 µg/mL
same,MBC range,[8]; [10],0.125 to 1024 µg/mL
same,MIC range,[8]; [10],0.125 to 512 µg/mL
same,MBC,[8]; E. cloacae isolate no. 4073,512 µg/mL
same,MIC,[8]; E. cloacae isolate no. 4073,256 µg/mL
same,MBC,[8]; E. cloacae isolate no. 5420,128 µg/mL
same,MIC,[8]; E. cloacae isolate no. 5420,64 µg/mL
same,kill at 4 hours,[9],1.5 log10
